The values that follow come from patent US7732475B2, “Histone deacetylase inhibitors” (Takeda San Diego, Inc., priority 2005, dated 2010).

Structures are written as SMILES.

The target of this test is HDAC2 (Homo sapiens, UniProt Q92769). As to the kind of experiment: HDAC2 fluorescence inhibition assay (tBoc-Lys(Ac)-AMC).
Chain of HDAC2 (Q92769 with tags, fused parts or gaps): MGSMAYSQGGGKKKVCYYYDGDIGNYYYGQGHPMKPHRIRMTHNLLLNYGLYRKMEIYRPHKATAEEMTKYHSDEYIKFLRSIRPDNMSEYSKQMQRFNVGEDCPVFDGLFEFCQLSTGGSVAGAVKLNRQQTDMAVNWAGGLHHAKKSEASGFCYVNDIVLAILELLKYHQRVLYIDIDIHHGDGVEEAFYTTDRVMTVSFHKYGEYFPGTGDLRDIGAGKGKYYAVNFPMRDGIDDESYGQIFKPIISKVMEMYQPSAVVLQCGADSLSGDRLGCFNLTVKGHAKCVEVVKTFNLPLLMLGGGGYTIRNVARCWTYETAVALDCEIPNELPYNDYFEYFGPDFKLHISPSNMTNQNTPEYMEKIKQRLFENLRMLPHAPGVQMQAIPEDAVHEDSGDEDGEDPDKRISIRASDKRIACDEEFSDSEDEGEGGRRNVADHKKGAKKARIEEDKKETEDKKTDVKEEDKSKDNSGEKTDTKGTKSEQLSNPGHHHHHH
Turning to `Nc1ccccc1NC(=O)c1ccc(Cn2ncc3ccccc32)cc1` [Example 1, 4-((1H-indazol-1-yl)methyl)-N-(2-aminophenyl)benzamide], the IC50 is at most 50 nM.

For `Nc1ccccc1NC(=O)c1ccc(Cn2cc3ccccc3n2)cc1` [Example 2, 4-((2H-indazol-2-yl)methyl)-N-(2-aminophenyl)benzamide], the IC50 lay within 50 to 100 nM.

As for `CC(=O)Nc1ccc2c(cnn2Cc2ccc(C(=O)Nc3ccccc3N)cc2)c1` [Example 3, 4-((5-acetamido-1H-indazol-1-yl)methyl)-N-(2-aminophenyl)benzamide], the concentration for half-maximal inhibition (IC50) is at most 50 nM.

Molecule `CC(=O)Nc1ccc2nn(Cc3ccc(C(=O)Nc4ccccc4N)cc3)cc2c1` [Example 4, 4-((5-acetamido-2H-indazol-2-yl)methyl)-N-(2-aminophenyl)benzamide] came in with a half-inhibitory concentration (IC50) of at most 50 nM.

`Nc1ccccc1NC(=O)c1ccc(Cn2ncc3cc([N+](=O)[O-])ccc32)cc1` [Example 5, N-(2-aminophenyl)-4-((5-nitro-1H-indazol-1-yl)methyl)benzamide]: the IC50 was at most 50 nM.

`Nc1ccccc1NC(=O)c1ccc(Cn2ncc3cc(NC(=O)c4ccccc4)ccc32)cc1` [Example 6, 4-((5-benzamido-1H-indazol-1-yl)methyl)-N-(2-aminophenyl)benzamide] showed a half-inhibitory concentration (IC50) of at most 50 nM.

With `Nc1ccc2c(cnn2Cc2ccc(C(=O)Nc3ccccc3N)cc2)c1` [Example 7, 4-((5-amino-1H-indazol-1-yl)methyl)-N-(2-aminophenyl)benzamide], the concentration for half-maximal inhibition (IC50) was at most 50 nM.

`Nc1ccccc1NC(=O)c1ccc(Cn2cc3cc([N+](=O)[O-])ccc3n2)cc1` [Example 8, N-(2-aminophenyl)-4-((5-nitro-2H-indazol-2-yl)methyl)benzamide] had an IC50 of at most 50 nM.

Molecule `Nc1ccc2nn(Cc3ccc(C(=O)Nc4ccccc4N)cc3)cc2c1` [Example 9, 4-((5-amino-2H-indazol-2-yl)methyl)-N-(2-aminophenyl)benzamide] registered an IC50 of 50 to 100 nM.

Molecule `Nc1ccccc1NC(=O)c1ccc(Cn2cc3cc(NC(=O)c4ccccc4)ccc3n2)cc1` [Example 10, 4-((5-benzamido-2H-indazol-1-yl)methyl)-N-(2-aminophenyl)benzamide] displayed an IC50 of at most 50 nM.

The molecule `COCCOC(=O)Nc1ccc2nn(Cc3ccc(C(=O)Nc4ccccc4N)cc3)cc2c1` [Example 11, 2-Methoxyethyl 2-(4-((2-aminophenyl)carbamoyl)benzyl)-2H-indazol-5-ylcarbamate] gave an IC50 of at most 50 nM.

`COC(=O)Nc1ccc2nn(Cc3ccc(C(=O)Nc4ccccc4N)cc3)cc2c1` [Example 12, Methyl 2-(4-((2-aminophenyl)carbamoyl)benzyl)-2H-indazol-5-ylcarbamate] came in with an IC50 of at most 50 nM.

`COCCOC(=O)Nc1ccc2c(cnn2Cc2ccc(C(=O)Nc3ccccc3N)cc2)c1` [Example 13, 2-Methoxyethyl 1-(4-((2-aminophenyl)carbamoyl)benzyl)-1H-indazol-5-ylcarbamate] gave an IC50 of at most 50 nM.

`COC(=O)Nc1ccc2c(cnn2Cc2ccc(C(=O)Nc3ccccc3N)cc2)c1` [Example 14, Methyl 1-(4-((2-aminophenyl)carbamoyl)benzyl)-1H-indazol-5-ylcarbamate] returned an IC50 of at most 50 nM.

In turn, `Nc1ccccc1NC(=O)c1ccc(Cn2ncc3cc(NC(=O)OCc4ccccc4)ccc32)cc1` [Example 15, Benzyl 1-(4-((2-aminophenyl)carbamoyl)benzyl)-1H-indazol-5-ylcarbamate] displayed a 50% inhibitory concentration (IC50) of at most 50 nM.

Turning to `Nc1ccccc1NC(=O)c1ccc(Cn2cc3cc(NC(=O)OCc4ccccc4)ccc3n2)cc1` [Example 16, Benzyl 2-(4-((2-aminophenyl)carbamoyl)benzyl)-2H-indazol-5-ylcarbamate], the IC50 is at most 50 nM.

Turning to `Nc1ccc(-c2ccccc2)cc1NC(=O)c1ccc(Cn2cc3cc([N+](=O)[O-])ccc3n2)cc1` [Example 17, N-(4-Amino-biphenyl-3-yl)-4-(5-nitro-indazol-2-ylmethyl)-benzamide], the half-inhibitory concentration (IC50) was at most 50 nM.

As to `Nc1ccccc1NC(=O)c1ccc(Cn2cc3cc(NC(=O)N4CCOCC4)ccc3n2)cc1` [Example 18, N-(2-(4-((2-Aminophenyl)carbamoyl)benzyl)-2H-indazol-5-yl)morpholine-4-carboxamide], the IC50 was at most 50 nM.

`Nc1ccccc1NC(=O)c1ccc(Cn2cc3ccccc3n2)s1` [Example 19, 5-((2H-Indazol-2-yl)methyl)-N-(2-aminophenyl)thiophene-2-carboxamide]: the IC50 was 100 to 500 nM.

Molecule `Nc1ccccc1NC(=O)c1ccc(Cn2cc3cc([N+](=O)[O-])ccc3n2)s1` [Example 20, N-(2-Aminophenyl)-5-((5-nitro-2H-indazol-2-yl)methyl)thiophene-2-carboxamide] yielded an IC50 of at most 50 nM.

`Nc1ccccc1NC(=O)c1ccc(Cn2ncc3cc(NC(=O)N4CCOCC4)ccc32)cc1` [Example 21, N-(1-(4-((2-Aminophenyl)carbamoyl)benzyl)-1H-indazol-5-yl)morpholine-4-carboxamide] gave a concentration for half-maximal inhibition (IC50) of at most 50 nM.

Consider `Nc1ccccc1NC(=O)c1ccc(Cn2ncc3cc(NC(=O)OCCN4CCOCC4)ccc32)cc1` [Example 22, 2-Morpholinoethyl 1-(4-((2-aminophenyl)carbamoyl)benzyl)-1H-indazol-5-ylcarbamate], for which the 50% inhibitory concentration (IC50) is at most 50 nM.

As for `Nc1ccccc1NC(=O)c1ccc(Cn2ncc3cc(NC(=O)OCc4cccnc4)ccc32)cc1` [Example 23, Pyridin-3-ylmethyl 1-(4-((2-aminophenyl)carbamoyl)benzyl)-1H-indazol-5-ylcarbamate], the half-inhibitory concentration (IC50) is at most 50 nM.

`Nc1ccccc1NC(=O)c1ccc(Cn2ncc3ccccc32)s1` [Example 24, 5-((1H-Indazol-1-yl)methyl)-N-(2-aminophenyl)thiophene-2-carboxamide] gave a 50% inhibitory concentration (IC50) of 100 to 500 nM.

`Nc1ccccc1NC(=O)c1ccc(Cn2cc3cccnc3n2)cc1` [Example 25, 4-((2H-Pyrazolo[3,4-b]pyridin-2-yl)methyl)-N-(2-aminophenyl)benzamide] came in with a half-inhibitory concentration (IC50) of 100 to 500 nM.

`Nc1ccc(-c2ccccc2)cc1NC(=O)c1ccc(Cn2cc3cccnc3n2)cc1` [Example 26, N-(4-Amino-biphenyl-3-yl)-4-pyrazolo[3,4-b]pyridin-2-ylmethyl-benzamide] displayed an IC50 of at most 50 nM.

Consider `Nc1ccc(-c2ccccc2)cc1NC(=O)c1ccc(Cn2cc3ccccc3n2)cc1` [Example 27, N-(4-Amino-biphenyl-3-yl)-4-indazol-2-ylmethyl-benzamide], for which the IC50 was at most 50 nM.

Regarding `Cc1nn(Cc2ccc(C(=O)Nc3ccccc3N)cc2)c2ccccc12` [Example 28, N-(2-Aminophenyl)-4-((3-methyl-1H-indazol-1-yl)methyl)benzamide], the 50% inhibitory concentration (IC50) was in the range of 50 to 100 nM.

As for `Cc1c2ccccc2nn1Cc1ccc(C(=O)Nc2ccccc2N)cc1` [Example 29, N-(2-Aminophenyl)-4-((3-methyl-2H-indazol-2-yl)methyl)benzamide], the IC50 lay in the range of 50 to 100 nM.

Regarding `Nc1ccccc1NC(=O)c1ccc(CNc2n[nH]c3ccccc23)cc1` [Example 30, 4-((1H-indazol-3-ylamino)methyl)-N-(2-aminophenyl)benzamide], the IC50 lay within 50 to 100 nM.

With `Nc1ccccc1NC(=O)c1ccc(Cn2cccn2)cc1` [Example 31, 4-((1H-pyrazol-1-yl)methyl)-N-(2-aminophenyl)benzamide], the half-inhibitory concentration (IC50) was at least 500 nM.

Molecule `COC(=O)c1ccc(N)c(NC(=O)c2ccc(Cn3cc4ccccc4n3)cc2)c1` [Example 33, Methyl 3-(4-((2H-indazol-2-yl)methyl)benzamido)-4-aminobenzoate] registered a 50% inhibitory concentration (IC50) of at least 500 nM.

`Cc1cnn(Cc2ccc(C(=O)Nc3ccccc3N)cc2)c1` [Example 34, N-(2-aminophenyl)-4-((4-methyl-1H-pyrazol-1-yl)methyl)benzamide]: the IC50 was 100 to 500 nM.

`Nc1ccccc1NC(=O)c1ccc(Cn2cc3ccc(F)cc3n2)cc1` [Example 35, N-(2-aminophenyl)-4-((6-fluoro-2H-indazol-2-yl)methyl)benzamide] yielded a concentration for half-maximal inhibition (IC50) of 50 to 100 nM.

Regarding `Nc1ccccc1NC(=O)c1ccc(Cn2ncc3ccc(F)cc32)cc1` [Example 36, N-(2-aminophenyl)-4-((6-fluoro-1H-indazol-1-yl)methyl)benzamide], the half-maximal inhibitory concentration (IC50) is 50 to 100 nM.

`Nc1ccccc1NC(=O)c1ccc(Cn2ncc3cc(F)ccc32)cc1` [Example 37, N-(2-aminophenyl)-4-((5-fluoro-1H-indazol-1-yl)methyl)benzamide] came in with an IC50 of 50 to 100 nM.

Take `Nc1ccccc1NC(=O)c1ccc(Cn2cc3cc(F)ccc3n2)cc1` [Example 38, N-(2-aminophenyl)-4-((5-fluoro-2H-indazol-2-yl)methyl)benzamide]: the IC50 was at most 50 nM.

The molecule `CC(Cn1ncc2ccccc21)c1ccc(C(=O)Nc2ccccc2N)cc1` (centres unmarked) [Example 39, 4-(1-(1H-indazol-1-yl)propan-2-yl)-N-(2-aminophenyl)benzamide] came in with an IC50 of at least 500 nM.

`Nc1ccccc1NC(=O)c1ccc(CCn2ncc3ccccc32)cc1` [Example 40, 4-(2-(1H-indazol-1-yl)ethyl)-N-(2-aminophenyl)benzamide] had an IC50 of 100 to 500 nM.

`Nc1ccccc1NC(=O)c1ccc(CCn2cc3ccccc3n2)cc1` [Example 41, 4-(2-(2H-indazol-2-yl)ethyl)-N-(2-aminophenyl)benzamide] returned a half-inhibitory concentration (IC50) of 50 to 100 nM.

In turn, `Nc1ccccc1NC(=O)c1ccc(Cn2ncc3c(Cl)cccc32)cc1` [Example 42, N-(2-aminophenyl)-4-((4-chloro-1H-indazol-1-yl)methyl)benzamide] showed an IC50 of at most 50 nM.

`Nc1ccccc1NC(=O)c1ccc(Cn2cc3c(Cl)cccc3n2)cc1` [Example 43, N-(2-aminophenyl)-4-((4-chloro-2H-indazol-2-yl)methyl)benzamide] came in with an IC50 of at most 50 nM.

Take `Nc1ccccc1NC(=O)c1ccc(Cn2ncc3c(F)cc(F)cc32)cc1` [Example 44, N-(2-aminophenyl)-4-((4,6-difluoro-1H-indazol-1-yl)methyl)benzamide]: the IC50 was 50 to 100 nM.

In the case of `Nc1ccccc1NC(=O)c1ccc(Cn2cc3c(F)cc(F)cc3n2)cc1` [Example 45, N-(2-aminophenyl)-4-((4,6-difluoro-2H-indazol-2-yl)methyl)benzamide], the IC50 lay within 50 to 100 nM.

A word on the IC50: it is the concentration at which inhibition is half-maximal.
